Assay results taken from US8354425B2, “Azabicyclic carboxamide derivatives, preparation thereof and therapeutic use thereof” (Sanofi, priority 2008, dated 2013).

Columns and labels:
local TRPV1 receptors = molecular target: T1, local TRPV1 receptors (Mus musculus, UniProt Q704Y3); assay: Pain induced by intraplantar administration of capsaicin to mice; assay type: in vivo; conditions: 10 mg/kg orally 120 minutes before intraplantar capsaicin, n=10
T1 construct: from tissue; host or cells: living mouse, hind leg (intraplantar capsaicin injection)
T1 sequence (Q704Y3 whole entry): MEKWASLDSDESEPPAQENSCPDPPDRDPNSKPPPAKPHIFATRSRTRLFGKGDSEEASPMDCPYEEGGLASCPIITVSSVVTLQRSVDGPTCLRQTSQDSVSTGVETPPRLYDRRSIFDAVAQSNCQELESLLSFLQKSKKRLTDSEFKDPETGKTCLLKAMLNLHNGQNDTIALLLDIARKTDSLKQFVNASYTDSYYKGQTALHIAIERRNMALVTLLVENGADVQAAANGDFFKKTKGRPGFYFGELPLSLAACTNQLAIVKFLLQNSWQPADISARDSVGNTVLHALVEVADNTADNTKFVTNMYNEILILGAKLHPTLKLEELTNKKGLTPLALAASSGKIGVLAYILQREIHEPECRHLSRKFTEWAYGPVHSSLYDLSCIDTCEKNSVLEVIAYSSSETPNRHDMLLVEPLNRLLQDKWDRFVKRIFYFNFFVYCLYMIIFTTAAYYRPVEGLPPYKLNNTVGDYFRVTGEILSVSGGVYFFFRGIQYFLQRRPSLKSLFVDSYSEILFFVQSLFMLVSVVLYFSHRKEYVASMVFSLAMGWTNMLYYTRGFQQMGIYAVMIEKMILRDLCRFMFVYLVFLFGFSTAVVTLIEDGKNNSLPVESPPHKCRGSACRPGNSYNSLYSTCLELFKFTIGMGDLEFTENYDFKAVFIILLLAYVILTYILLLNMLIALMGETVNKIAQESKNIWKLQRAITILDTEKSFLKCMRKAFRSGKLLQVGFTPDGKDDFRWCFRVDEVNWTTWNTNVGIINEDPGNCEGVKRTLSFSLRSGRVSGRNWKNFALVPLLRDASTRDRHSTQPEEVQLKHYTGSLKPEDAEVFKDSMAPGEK
Method: Pain induced by intraplantar administration of capsaicin to mice.
The intraplantar injection of capsaicin to mice rapidly produces short-lived nociceptive behaviour, which is reflected by licking, biting and flexing of the administered leg. These nociceptive responses are probably associated with the activation of the local TRPV1 receptors by the capsaicin.
(E)-Capsaicin is initially diluted to 3 mg/ml in DMSO, and then diluted again for its final use to 1.5 μg/20 μl in physiological saline. The administration of solvent has no effect on the behaviour of the mouse. The capsaicin is injected into the hind legs of the animal, on the upper face.
The test compounds are administered orally 120 minutes before the injection of capsaicin. Two hours after administration of the compounds, the mice are placed in a glass beaker. The nociceptive behaviour of the animals is then assessed immediately by the experimenter, and the duration of the capsaicin-induced behavioural manifestations is timed over a period of 2 minutes (licking and biting, total or partial flexure of the injected leg).
For each compound, an inhibition corresponding to the mean of the capsaicin-induced nociceptive responses, in response to a dose of test product (expressed in mg/kg) administered orally to a sample of a given number (n) of mice, is determined. […]

TRPV1 receptor = molecular target: T2, TRPV1 receptor (Rattus norvegicus, UniProt O35433); assay: Test of inhibition of the current induced with capsaicin on rat DRGs (whole-cell patch-clamp); assay type: cell-based; conditions: inhibition of control capsaicin response, newborn rat DRG neurones
T2 construct: DRG neurones naturally express the TRPV1 receptor; endogenous in cells; host or cells: primary culture of newborn rat dorsal root ganglion neurones
T2 sequence (O35433 whole entry): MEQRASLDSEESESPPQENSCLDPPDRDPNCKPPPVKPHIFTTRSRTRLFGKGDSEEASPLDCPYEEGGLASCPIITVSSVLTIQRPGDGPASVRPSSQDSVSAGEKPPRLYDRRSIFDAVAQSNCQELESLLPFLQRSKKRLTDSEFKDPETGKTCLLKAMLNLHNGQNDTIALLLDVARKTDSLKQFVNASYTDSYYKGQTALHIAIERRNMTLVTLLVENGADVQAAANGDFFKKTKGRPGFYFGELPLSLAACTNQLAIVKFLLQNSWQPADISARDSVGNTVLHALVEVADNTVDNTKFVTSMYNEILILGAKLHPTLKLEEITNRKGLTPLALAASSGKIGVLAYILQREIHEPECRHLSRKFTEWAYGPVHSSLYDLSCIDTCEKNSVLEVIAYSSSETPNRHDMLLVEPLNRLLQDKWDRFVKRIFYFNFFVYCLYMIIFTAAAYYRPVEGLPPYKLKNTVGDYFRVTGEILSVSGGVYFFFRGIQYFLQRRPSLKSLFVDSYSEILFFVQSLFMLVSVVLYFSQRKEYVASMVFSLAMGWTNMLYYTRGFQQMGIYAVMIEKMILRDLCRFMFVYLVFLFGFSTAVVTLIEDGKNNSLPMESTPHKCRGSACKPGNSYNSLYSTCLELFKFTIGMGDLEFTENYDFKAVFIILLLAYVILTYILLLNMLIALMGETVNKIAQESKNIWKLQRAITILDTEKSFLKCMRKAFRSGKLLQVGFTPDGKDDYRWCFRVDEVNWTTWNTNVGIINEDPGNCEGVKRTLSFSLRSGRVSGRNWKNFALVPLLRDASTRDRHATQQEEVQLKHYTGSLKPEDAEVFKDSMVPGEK
Method: Test of inhibition of the current induced with capsaicin on rat DRGs • Primary culture of rat dorsal root ganglion (DRG) cells:
DRG neurones naturally express the TRPV1 receptor.
The primary cultures of newborn rat DRGs are prepared using 1-day-old rats. Briefly, after dissection, the ganglions are trypsinized and the cells dissociated by mechanical trituration. The cells are resuspended in an Eagle basal culture medium containing 10% foetal calf serum, 25 mM KCl, 2 mM glutamine, 100 μg/ml gentamicin and 50 ng/ml of NGF, and then deposited on glass slides coated with laminin (0.25×10^6 cells per slide), which are then placed in Corning 12-well dishes. The cells are incubated at 37° C. in a humidified atmosphere containing 5% CO2 and 95% air. […]
The measuring chambers (volume 800 μl) containing the cell preparation are placed on the platform of an inverted microscope (Olympus IMT2) equipped with Hoffman optics (Modulation Contrast, New York) and observed at a magnification of 400×. […] The overall currents (membrane potential set at −60 mV) are recorded with an Axopatch 1D amplifier (Axon Instruments, Foster City, Calif.), connected to a PC running the Pclamp8 software (Axon Instrument). The current plots are recorded on paper and simultaneously digitized (sampling frequency 15 to 25 Hz) and acquired on the hard drive of the PC. […]

| Compound | % inhibition of the capsaicin-induced nociceptive responses (local TRPV1 receptors) | inhibition at 0.001 µM (TRPV1 receptor; compound at 1 nM) [%] | inhibition at 0.1 µM (TRPV1 receptor; compound at 100 nM) [%] | melting point [°C] |
| --- | --- | --- | --- | --- |
| O=C(Nc1cnc2[nH]ccc2c1)c1cc2cc(F)ccc2n1Cc1cccc(F)c1 [Compound 2, N-[1H-Pyrrolo[2,3-b]pyrid-5-yl]-5-fluoro-1-(3-fluorobenzyl)-1H-indole-2-carboxamide] | 61% (±6%) | 82 |  |  |
| O=C(Nc1cc2cc[nH]c2cn1)c1cc2cc(F)ccc2n1Cc1cccc(F)c1 [Compound 8, N-(1H-Pyrrolo[2,3-c]pyrid-5-yl)-5-fluoro-1-[(3-fluorophenyl]methyl]-1H-indole-2-carboxamide] |  |  | 67.5 | 203 to 204 |
